Experimental data published in patent publication US12612360B2 (Sanofi, priority 2020, dated 2026).

Target: T1, ERα (Homo sapiens, UniProt P03372)
T1 construct: host or cells: MCF7
T1 sequence (P03372 1-595): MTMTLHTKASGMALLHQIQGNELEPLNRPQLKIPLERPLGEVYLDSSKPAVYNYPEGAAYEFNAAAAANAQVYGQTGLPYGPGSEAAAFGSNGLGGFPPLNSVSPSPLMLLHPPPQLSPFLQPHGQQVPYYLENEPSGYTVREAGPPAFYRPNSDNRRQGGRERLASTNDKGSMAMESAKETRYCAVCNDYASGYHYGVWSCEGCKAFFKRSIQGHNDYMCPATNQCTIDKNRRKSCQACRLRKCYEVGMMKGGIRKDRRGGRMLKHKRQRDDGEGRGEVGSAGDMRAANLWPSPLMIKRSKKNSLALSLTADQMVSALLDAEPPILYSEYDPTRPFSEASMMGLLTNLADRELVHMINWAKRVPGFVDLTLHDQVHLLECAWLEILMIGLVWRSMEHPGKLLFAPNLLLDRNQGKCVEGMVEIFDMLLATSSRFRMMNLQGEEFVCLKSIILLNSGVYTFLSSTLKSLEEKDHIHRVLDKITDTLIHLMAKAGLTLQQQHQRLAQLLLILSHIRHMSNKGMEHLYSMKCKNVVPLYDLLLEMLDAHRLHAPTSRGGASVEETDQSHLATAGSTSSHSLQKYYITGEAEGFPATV
Experiment: Estrogen receptor degradation activity: breast cancer cell ERα in cell western assay (MCF7 cells)
Type: cell-based
Settings: for % Degradation At 0.3 μM: 4 hours, relative to fulvestrant 0.1 μM positive control; for DC50: 4 hours post compound addition, concentration which degrades 50% of the estrogen receptor, read-out: Degradation IC50
Summary of the method: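 In-cell western readout: ERα immunofluorescence (Alexa 488) normalised to DNA signal (Syto-64) after formalin fixation. Compounds dosed for 4 h on MCF7 cells in stripped-serum, phenol-red-free medium over nine 1:5 steps, 0.3 to […] final; fulvestrant 0.1 μM control. IC50 in nM for 50% ERα degradation.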

O=C(O)c1ccc2c(c1)CCCC(c1ccc3c(c1F)CCC3)=C2c1ccc(C=C2CN(CCC(F)F)C2)cc1 [Example 161, 9-(4-((1-(3,3-difluoropropyl)azetidin-3-ylidene)methyl)phenyl)-8-(4-fluoro-2,3-dihydro-1H-inden-5-yl)-6,7-dihydro-5H-benzo[7]annulene-3-carboxylic acid]
% Degradation At 0.3 μM: 92% | DC50: 1.2 nM

Cc1cc(F)ccc1C1=C(c2ccc(C=C3CN(CCCF)C3)c(C#N)c2)c2ccc(C(=O)O)cc2CCC1 [Example 46, 9-(3-cyano-4-((1-(3-fluoropropyl)azetidin-3-ylidene)methyl)phenyl)-8-(4-fluoro-2-methylphenyl)-6,7-dihydro-5H-benzo[7]annulene-3-carboxylic acid]
% Degradation At 0.3 μM: 94% | DC50: 6 nM

COc1cc(C2=C(c3ccc(C=C4CN(CCCF)C4)cc3)c3ccc(C(=O)O)cc3CCC2)cc(C(F)(F)F)c1 [Example 150]
% Degradation At 0.3 μM: 88% | DC50: 1.7 nM

O=C(O)c1ccc2c(c1)CCCC(c1cc(F)cc(C(F)(F)F)c1Cl)=C2c1ccc(C=C2CN(CCCF)C2)cc1 [Example 123, 8-(2-chloro-5-fluoro-3-(trifluoromethyl)phenyl)-9-(4-((1-(3-fluoropropyl)azetidin-3-ylidene)methyl)phenyl)-6,7-dihydro-5H-benzo[7]annulene-3-carboxylic acid]
% Degradation At 0.3 μM: 94% | DC50: 0.7 nM

Cc1c(C2=C(c3ccc(C=C4CN(CCC(F)F)C4)cc3)c3ccc(C(=O)O)cc3CCC2)ccc(F)c1F [Example 22, 8-(3,4-difluoro-2-methylphenyl)-9-(4-((1-(3,3-difluoropropyl)azetidin-3-ylidene)methyl)phenyl)-6,7-dihydro-5H-benzo[7]annulene-3-carboxylic acid]
% Degradation At 0.3 μM: 93% | DC50: 0.5 nM

Cc1c(F)cccc1C1=C(c2ccc(C=C3CN(CCCF)C3)cc2)c2ccc(C(=O)O)cc2CCC1 [Example 85, 8-(3-fluoro-2-methylphenyl)-9-(4-((1-(3-fluoropropyl)azetidin-3-ylidene)methyl)phenyl)-6,7-dihydro-5H-benzo[7]annulene-3-carboxylic acid]
% Degradation At 0.3 μM: 94% | DC50: 0.2 nM

CC1CCC(C2=C(c3ncc(C=C4CN(CCCF)C4)cc3F)c3ccc(C(=O)O)cc3CCC2)CC1 (mixture of isomers) [Example 188, 9-(3-fluoro-5-((1-(3-fluoropropyl)azetidin-3-ylidene)methyl)pyridin-2-yl)-8-(4-methylcyclohexyl)-6,7-dihydro-5H-benzo[7]annulene-3-carboxylic acid]
% Degradation At 0.3 μM: 89% | DC50: 1.8 nM

O=C(O)c1ccc2c(c1)CCCC([C@H]1C[C@@H]1c1ccccc1)=C2c1ccc(C=C2CN(CCCF)C2)cc1 (racemic) [Example 173, 9-(4-((1-(3-fluoropropyl)azetidin-3-ylidene)methyl)phenyl)-8-((trans)-2-phenylcyclopropyl)-6,7-dihydro-5H-benzo[7]annulene-3-carboxylic acid]
% Degradation At 0.3 μM: 90% | DC50: 0.7 nM

Cc1cc(C=C2CN(CCCF)C2)ccc1C1=C(c2ccc(Cl)cc2Cl)CCCc2cc(C(=O)O)ccc21.Cl [Example 93, 8-(2,4-dichlorophenyl)-9-(4-((1-(3-fluoropropyl)azetidin-3-ylidene)methyl)-2-methylphenyl)-6,7-dihydro-5H-benzo[7]annulene-3-carboxylic acid hydrochloride]
% Degradation At 0.3 μM: 97% | DC50: 0.6 nM

O=C(O)c1ccc2c(c1)CCCC(c1ccc(Cl)cc1Cl)=C2c1ccc(C=C2CN(CCCF)C2)cc1 [Example 1, 8-(2,4-Dichlorophenyl)-9-(4-((1-(3-fluoropropyl)azetidin-3-ylidene)methyl)phenyl)-6,7-dihydro-5H-benzo[7]annulene-3-carboxylic acid]
% Degradation At 0.3 μM: 96% | DC50: 0.4 nM

Cc1c(C#N)cccc1C1=C(c2ccc(C=C3CN(CCCF)C3)cc2)c2ccc(C(=O)O)cc2CCC1 [Example 91, 8-(3-cyano-2-methylphenyl)-9-(4-((1-(3-fluoropropyl)azetidin-3-ylidene)methyl)phenyl)-6,7-dihydro-5H-benzo[7]annulene-3-carboxylic acid]
% Degradation At 0.3 μM: 87% | DC50: 0.9 nM

CC1CCc2cc(C(=O)O)ccc2C(c2ccc(C=C3CN(CCCF)C3)cc2)=C1c1ccc(Cl)cc1Cl (racemic) [Example 166, 8-(2,4-Dichlorophenyl)-9-(4-((1-(3-fluoropropyl)azetidin-3-ylidene)methyl)phenyl)-7-methyl-6,7-dihydro-5H-benzo[7]annulene-3-carboxylic acid, racemic mixture]
% Degradation At 0.3 μM: 95% | DC50: 0.6 nM
